According to ChEMBL document CHEMBL4422651, “Revisiting tubercidin against kinetoplastid parasites: Aromatic substitutions at position 7 improve activity and reduce toxicity” (Eur J Med Chem, 2019):
Active and inactive are the calls of the source. No cut-off for these calls is given here.

Columns and labels:
[1] = test system: Trypanosoma brucei rhodesiense; test: Antitrypanosomal activity against Trypanosoma brucei rhodesiense STIB-900 after 48 hrs by alamar blue assay; type: functional, organism-based; settings: STIB-900, 48 h
[2] = test system: Trypanosoma brucei brucei; test: Antitrypanosomal activity against Trypanosoma brucei brucei Squib 427 after 48 hrs by alamar blue assay; type: functional, organism-based; settings: Squib 427, 48 h
[3] = Selectivity index, ratio of EC50 for human MRC5 cells to EC50 for Trypanosoma brucei rhodesiense STIB-900; type: toxicity; settings: read-out: Ratio EC50
[4] = Selectivity index, ratio of EC50 for human MRC5 cells to EC50 for Trypanosoma brucei brucei Squib 427; type: toxicity; settings: read-out: Ratio EC50
Trypanosoma cruzi [5] = test: Antitrypanosomal activity against nifurtimox-sensitive Trypanosoma cruzi Tulahuen CL2 harboring beta-galactosidase infected in human MRC5 cells after 7 days by resazurin dye-based assay; type: functional, organism-based
MRC5 = test: Cytotoxicity against human MRC5 cells assessed as reduction in cell viability after 3 days by resazurin dye-based assay; settings: MRC5, 72 h
Trypanosoma brucei [6] = test: Antitrypanosomal activity against wild type Trypanosoma brucei Lister 427 after 48 hrs by alamar blue assay; type: functional, organism-based; settings: Lister 427, 48 h
Trypanosoma brucei [7] = test: Antitrypanosomal activity against pentamidine/diminazene/melaminophenyl arsenical resistant Trypanosoma brucei B48 after 48 hrs by alamar blue assay; type: functional, organism-based; settings: B48, 48 h
Trypanosoma brucei [8] = test: Antitrypanosomal activity against isometamidium resistant Trypanosoma brucei ISMR1 after 48 hrs by alamar blue assay; type: functional, organism-based; settings: ISMR1, 48 h
Trypanosoma congolense = test: Antitrypanosomal activity against Trypanosoma congolense by resazurin assay; type: functional, organism-based
Trypanosoma brucei [9] = test: Antitrypanosomal activity against Trypanosoma brucei TbAT1-KO after 48 hrs by alamar blue assay; type: functional, organism-based
[10] = Selectivity index, ratio of EC50 for human MRC5 cells to EC50 for nifurtimox-sensitive Trypanosoma cruzi Tulahuen CL2 harboring beta-galactosidase; type: toxicity; settings: read-out: Ratio EC50
Trypanosoma cruzi [11] = test: Potency index, ratio of EC50 for benznidazole to EC50 for test compound for antitrypanosomal activity against nifurtimox-sensitive Trypanosoma cruzi Tulahuen CL2 harboring beta-galactosidase infected in human MRC5 cells after 7 days by resazurin dye-based assay; type: functional
Trypanosoma brucei [12] = test: Inhibition of [3H]-adenosine transport at Trypanosoma brucei Adenosine transporter P2 expressed in pentamidine/diminazene/melaminophenyl arsenical resistant Trypanosoma brucei B48 bloodstream forms after 60 secs by scintillation counting analysis
Trypanosoma brucei [13] = test: Inhibition of [3H]-adenosine transport at Trypanosoma brucei Adenosine transporter P1 expressed in pentamidine/diminazene/melaminophenyl arsenical resistant Trypanosoma brucei B48 bloodstream forms after 60 secs by scintillation counting analysis

Structure (SMILES)	EC50 [1] [µM]	EC50 [2] [µM]	selectivity ratio [3]	selectivity ratio [4]	Activity (Trypanosoma cruzi [5])	EC50 (MRC5) [µM]	further results
Nc1ncnc2c1c(-c1ccc(Cl)cn1)cn2[C@@H]1O[C@H](CO)[C@@H](O)[C@H]1O	4.6	8.97	> 13	> 7.1	inactive	> 64	–
Cn1cncc1-c1cn([C@@H]2O[C@H](CO)[C@@H](O)[C@H]2O)c2ncnc(N)c12	–	33.3	–	> 1.9	inactive	> 64	–
N=C(N)c1ccc(OCCCCCOc2ccc(C(=N)N)cc2)cc1 [PENTAMIDINE]	–	–	–	–	–	–	EC50 (Trypanosoma brucei [6]): 0.011 µM; EC50 (Trypanosoma brucei [7]): 0.99 µM; EC50 (Trypanosoma brucei [8]): 0.14 µM; EC50 (Trypanosoma congolense): 1.9 µM; EC50 (Trypanosoma brucei [9]): 0.018 µM
COc1ccc(-c2cn([C@@H]3O[C@H](CO)[C@@H](O)[C@H]3O)c3ncnc(N)c23)cc1	–	41.6	–	0.67	inactive	28	–
Nc1ncnc2c1c(-c1cc3ccccc3cn1)cn2[C@@H]1O[C@H](CO)[C@@H](O)[C@H]1O	6.16	14.7	> 10	> 4.4	inactive	> 64	–
Nc1ncnc2c1c(-c1cccc(Cl)n1)cn2[C@@H]1O[C@H](CO)[C@@H](O)[C@H]1O	0.62	1.75	> 103	> 37	inactive	> 64	–
Nc1ncnc2c1c(-c1cnccn1)cn2[C@@H]1O[C@H](CO)[C@@H](O)[C@H]1O	–	1.95	–	0.28	inactive	0.55	–
Nc1ncnc2c1c(-c1ncccn1)cn2[C@@H]1O[C@H](CO)[C@@H](O)[C@H]1O	–	2.26	–	6.3	inactive	14.3	–
Nc1ncnc2c1c(-c1cccc(Cl)c1)cn2[C@@H]1O[C@H](CO)[C@@H](O)[C@H]1O	6.88	9.9	4.8	3.3	inactive	32.8	–
Nc1ncnc2c1c(-c1ccc(F)cc1)cn2[C@@H]1O[C@H](CO)[C@@H](O)[C@H]1O	14.7	8.81	> 4.4	> 7.3	–	> 64	selectivity ratio [10]: > 130; Ratio EC50 (Trypanosoma cruzi [11]): <=10; EC50 (Trypanosoma cruzi [5]; Tulahuen CL2, MRC5, 168 h): 0.49 µM
Nc1ncnc2c1ncn2[C@@H]1O[C@H](CO)[C@@H](O)[C@H]1O	–	–	–	–	–	–	Km (Trypanosoma brucei [12]): 0.53 µM; Km (Trypanosoma brucei [13]): 0.16 µM
Nc1ncnc2c1c(-c1cc(Cl)cc(Cl)c1)cn2[C@@H]1O[C@H](CO)[C@@H](O)[C@H]1O	3.66	8.17	> 17	> 7.8	inactive	> 64	–
Nc1ncnc2c1c(-c1cncnc1)cn2[C@@H]1O[C@H](CO)[C@@H](O)[C@H]1O	–	52.4	–	> 1.2	inactive	> 64	–
Nc1ncnc2c1c(-c1nccc3ccccc13)cn2[C@@H]1O[C@H](CO)[C@@H](O)[C@H]1O	55.6	> 64	> 1.2	–	inactive	> 64	–
N=C(N)c1ccc(/N=N/Nc2ccc(C(=N)N)cc2)cc1 [DIMINAZENE]	–	–	–	–	–	–	EC50 (Trypanosoma brucei [6]): 0.42 µM; EC50 (Trypanosoma brucei [7]): 7.2 µM; EC50 (Trypanosoma brucei [8]): 2.9 µM; EC50 (Trypanosoma congolense): 0.22 µM; EC50 (Trypanosoma brucei [9]): 4.5 µM
Nc1ncnc2c1c(-c1ccc(Cl)cc1)cn2[C@@H]1O[C@H](CO)[C@@H](O)[C@H]1O	–	7.58	–	3.6	–	27	selectivity ratio [10]: 57.4; Ratio EC50 (Trypanosoma cruzi [11]): <=10
